Data set [1] concerns Tomato (cultivar "Reika"). In kind it is in vivo. The note with it: farm field, plant activator 50 times diluted, applied once every week. As to the method:
(§1) Tomato (cultivar “Reika”) seedlings were planted with space of 60 cm between plants in the farm field where an outburst of bacterial wilt disease was observed, and the solution of the plant activator for test, which was 50 times diluted with water, was applied either by spraying (20 mL/plant) or watering it to soil (200 mL plant) once every week. The incidences of the bacterial wilt disease and phytotoxic damage were evaluated once every week for 4 weeks.
(§2) The leaves and stems of tomatoes were treated similar to Example 6 except that the Validamycin or no agent was used instead of the plant activator for test.

A further data set concerns bacterial wilt disease. The experiment in a line: Bacterial wilt disease in tomatoes growing in farm field. It is filed as in vivo, Tomato (cultivar "Reika"). The note with it: plant activator 50 times diluted, applied once every week. The protocol: as §1, §2
Data set [2] concerns bacterial soft rot causing bacteria (Erwinia carotovora subsp. Carotovora). The experiment in a line: Bacterial soft rot in Arabidopsis thaliana after root treatment by watering. The note with it: comparative agents used instead of the plant activator, roots treated by watering, inoculated 24 hours after treatment. It is filed as in vivo. The protocol: The roots of Arabidopsis thaliana grown in the soil were treated by applying the 10 times, 100 times or 500 times diluted solution of the plant activator for test using the watering. 24 hours after the treatment, bacterial soft rot causing bacteria (Erwinia carotovora subsp. Carotovora) was inoculated on the leaves and stems above the ground. The plants were then grown at 23±2° C. in a high humidity environment for 3 days, and the disease symptoms at the pathogenic bacteria inoculated part had been evaluated up to one week after. The disease prevention effect was determined according to the following criteria.
⊚: the ratio of the area of leaves with no disease symptoms out of total area is 1.60 times or greater than the ratio observed in untreated leaves. ∘: the ratio of the area of leaves with no disease symptoms out of total area is 1.40 to 1.59 times than the ratio observed in untreated leaves. Δ: the ratio of the area of leaves with no disease symptoms out of total area is 1.20 to 1.39 times than the ratio observed in untreated leaves. X: the ratio of the area of leaves with no disease symptoms out of total area is 1.20 times less than the ratio observed in untreated leaves.
The roots of Arabidopsis thaliana were treated similar to Example 2 except that the water, peroxylipid, probenazole, isotianil, acibenzolar-S-methyl (ASM), 3′-chloro-4,4′-dimethyl-1,2,3-thiadiazole-5-carboxianilide (tiadinil), ketol fatty acid solution 1, or ketol fatty acid solution 2 was used instead of the plant activator for test.

The test system of another data set is powdery mildew. Nature of the data set: Naturally occurring powdery mildew in miniature roses in a planter. In kind it is in vivo, miniature roses (cultivar Rouge). The note with it: plant activator 100 times diluted or 0.02% mepanipyrim, sprayed once every week. As to the method:
(§3) The solution of the plant activator for test, which was 100 times diluted with water, was applied to the leaves and stems of miniature roses (cultivar Rouge) planted in an outdoor planter right after the planting and once every week by spraying (about 50 mL/plant), and the naturally occurring damages due to disease (powdery mildew and black point disease) were evaluated on first week and fourth week.
(§4) The leaves and stems of miniature roses were treated similar to Example 7 except that 0.02% mepanipyrim or no agent was used instead of the plant activator for test.

A further data set deals with black point disease. The experiment in a line: Naturally occurring black point disease in miniature roses in a planter. It is filed as in vivo, miniature roses (cultivar Rouge). The note with it: plant activator 100 times diluted or 0.02% mepanipyrim, sprayed once every week. The protocol: as §3, §4
In data set [3] the test system is jasmonate mediated signaling pathway. The experiment in a line: Real-time PCR gene expression in tomatoes, jasmonate mediated signaling pathway. It is filed as in vivo, tomatoes (cultivar "Momotaro"). Conditions: index, untreated tomatoes = 1. As to the method: (§5) Further, the cDNA was synthesized from total RNA isolated from each tomato 24 hours and 72 hours after the inoculation, and the expression level of individual genes specific to the salicylic acid mediated signaling pathway and the jasmonate mediated signaling pathway was analyzed by real-time PCR. In this example, the amount of the gene expression is represented by an index, which is a calculated ratio given that the amount of gene expression in untreated tomatoes is 1.

Data set [4] deals with tomatoes (cultivar "Momotaro"). The experiment in a line: Phytotoxic damage in tomatoes grown in pot. The note with it: 10 mL undiluted solution by watering, 7 days. It is filed as in vivo. The protocol:
(§6) The leaves and stems of tomatoes (cultivar “Momotaro”) grown in the pot for 3 weeks were treated by applying 10 mL of undiluted solution of the plant activator for test using the watering. The soil (about 100 g) in the pot was moistened thoroughly before the watering. The bacterial wilt disease bacteria were inoculated on the leaves and roots of tomatoes 1 hour and 24 hours after the watering. The plants were then grown at 30° C. in a high humidity environment for 7 days, and the incidences of the bacterial wilt disease and phytotoxic damage were evaluated.
(§7) The leaves and stems of tomatoes were treated similar to Example 5 except that the water and the fatty acid (linoleic acid) were used instead of the plant activator for test.

For data set [5], the system named is salicylic acid mediated signaling pathway. The experiment in a line: Real-time PCR gene expression in tomatoes, salicylic acid mediated signaling pathway. It is filed as in vivo, tomatoes (cultivar "Momotaro"). Conditions: index, untreated tomatoes = 1. As to the method:
as §5

In data set [6] the test system is bacterial wilt disease bacteria. The experiment in a line: Bacterial wilt disease in tomatoes grown in pot. It is filed as in vivo, tomatoes (cultivar "Momotaro"). Conditions: 10 mL undiluted solution by watering, grown 7 days at 30° C. after inoculation. As to the method:
as §6, §7

For `OCC1=C[C@H](N[C@H]2C[C@H](CO)[C@@H](O[C@@H]3O[C@H](CO)[C@@H](O)[C@H](O)[C@H]3O)[C@H](O)[C@H]2O)[C@H](O)[C@@H](O)[C@@H]1O` [Validamycin], the “incidences of phytotoxic damage Week 1” value in [1] (Week 1) turned out to be 100%. Moreover, in [1] (Week 2), the “incidences of phytotoxic damage Week 2” value amounted to 100%. Moreover, the “incidences of phytotoxic damage Week 3” value in data set [1] (Week 3) is reported as 100%. Also, the “incidences of phytotoxic damage Week 4” value in data set [1] (Week 4) came out at 100%. Moreover, the “incidences of disease Week 1” value with bacterial wilt disease (Week 1) turned out to be 0%. In addition, the “incidences of disease Week 2” value in the data set with bacterial wilt disease (Week 2) was determined as 0%. Further, the “incidences of disease Week 3” value with bacterial wilt disease (Week 3) was 0%. In addition, the “incidences of disease Week 4” value in the data set on bacterial wilt disease (Week 4) is recorded as 67%.
Regarding `C=CCOC1=NS(=O)(=O)c2ccccc21` [probenazole], the disease prevention result in data set [2] is given as “Δ (the ratio of the area of leaves with no disease symptoms out of total area is 1.20 to 1.39 times than the ratio observed in untreated leaves.)”.
`CC#Cc1cc(C)nc(Nc2ccccc2)n1` [mepanipyrim]: in the data set with powdery mildew (Week 1), the “incidences of disease powdery mildew Week 1” value came out at 20.0%. For the same molecule, the “incidences of disease powdery mildew Week 4” value with powdery mildew (Week 4) worked out at 30.0%. In addition, the “incidences of disease black point disease Week 1” value in the data set on black point disease (Week 1) turned out to be 0%. Moreover, in the data set with black point disease (Week 4), the “incidences of disease black point disease Week 4” value is 15%.
Turning to `CCCCC/C=C\C/C=C\CCCCCCCC(=O)O` [fatty acid, linoleic acid], the “amount of gene expression jasmonate mediated signaling pathway 24 hours” value in data set [3] (24 hours after inoculation) was determined as 0.5. Further, the “amount of gene expression jasmonate mediated signaling pathway 72 hours” value in data set [3] (72 hours after inoculation) came to 1. Also, in data set [4], the “incidences of phytotoxic damage” value is on record as 0%. Besides, in data set [5] (24 hours after inoculation), the “amount of gene expression salicylic acid mediated signaling pathway 24 hours” value is on record as 0. Also, the “amount of gene expression salicylic acid mediated signaling pathway 72 hours” value in data set [5] (72 hours after inoculation) worked out at 0. The same molecule had an incidences of disease in data set [6] of 100%.
For `N#Cc1ccccc1NC(=O)c1snc(Cl)c1Cl` [isotianil], the disease prevention entry in data set [2] is “Δ (the ratio of the area of leaves with no disease symptoms out of total area is 1.20 to 1.39 times than the ratio observed in untreated leaves.)”.
With `CSC(=O)c1cccc2nnsc12` [ASM, acibenzolar-S-methyl], in [2], the disease prevention entry is on record as “⊚ (the ratio of the area of leaves with no disease symptoms out of total area is 1.60 times or greater than the ratio observed in untreated leaves.)”.
Same read-out and setting: with `Cc1ccc(NC(=O)c2snnc2C)cc1Cl` [tiadinil, 3′-chloro-4,4′-dimethyl-1,2,3-thiadiazole-5-carboxianilide] the entry was “X (the ratio of the area of leaves with no disease symptoms out of total area is 1.20 times less than the ratio observed in untreated leaves.)”.

The record behind these values is patent publication US20220295713A1, “PLANT ACTIVATOR AND A METHOD OF MANUFACTURING THE SAME” (IBIDEN CO., LTD., priority 2016, published 2022).
